Experimental data reported in US20240239755A1, “SUBSTITUTED PYRIDAZINONES, SALTS OR N-OXIDES THEREOF AND THEIR USE AS HERBICIDALLY ACTIVE SUBSTANCES” (Bayer Aktiengesellschaft, priority 2021, published 2024).

Columns and labels:
Type in all cases: in vivo
[1] = tested on: Matricaria inodora (MATIN); test: Herbicidal pre-emergence action, 320 g/ha (Table C3); settings: visual grading after ca. 3 weeks vs untreated controls
Excerpt: (§1) Seeds of mono- and dicotyledonous weed plants were sown in plastic pots (double sowings with one species of mono- and one species of dicotyledonous weed plants per pot), in sandy loam, and covered with soil. The compounds according to the invention, formulated in the form of wettable powders (WP) or as emulsifiable concentrates (EC), were applied to the surface of the covering soil as an aqueous suspension or as an emulsion, with the addition of 0.5% of an additive, at an application rate of 600 litres of water per hectare (converted). Following treatment, the pots were placed in a greenhouse and kept under optimum growth conditions for the test plants. The visual grading of the damage to the test plants was carried out after ca. 3 weeks in comparison to untreated controls (herbicidal effect in percent (%): 100% effect=plants have died, 0% effect=as control plants). Tables C1 to C6 below, show the effects of selected compounds of the general formula (I) according to Table 1 on various harmful plants using an application rate corresponding to 320 g/ha obtained by the experimental procedure mentioned above.

Stellaria media (STEME) [2] = test: Herbicidal pre-emergence action, 1280 g/ha (Table A9); settings: visual grading after ca. 3 weeks vs untreated controls
Procedure, shortened: (§2)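 Percent herbicidal effect was scored visually about 3 weeks after treatment relative to untreated pots, where 100% means dead plants and 0% equals control. Compounds (WP or EC) were sprayed onto covering soil of sown sandy loam pots in water containing 0.5% additive at 600 L/ha.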

[3] = tested on: Amaranthus retroflexus (AMARE); test: Herbicidal pre-emergence action, 1280 g/ha (Table A11); settings: visual grading after ca. 3 weeks vs untreated controls
Procedure, shortened: as §2

[4] = tested on: Matricaria inodora (MATIN); test: Herbicidal post-emergence action, 1280 g/ha (Table B6); settings: visual assessment after ca. 3 weeks vs untreated controls
Procedure, shortened: (§3)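 Read-out is visual herbicidal effect in percent against untreated controls (100% = dead plants, 0% = like controls), scored about 3 weeks after treatment. Plants at the single-leaf stage were sprayed on green parts with aqueous WP or EC preparations containing 0.5% additive, 600 L water/ha.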

[5] = tested on: Abutilon theophrasti (ABUTH); test: Herbicidal post-emergence action, 320 g/ha, ABUTH; settings: visual grading after ca. 3 weeks
Procedure, shortened: (§4)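 Visual herbicidal effect (%) relative to untreated plants, scored about 3 weeks after treatment; 100% means dead plants. Plants in sandy loam were sprayed at the single-leaf stage with formulated compound plus 0.5% additive in 600 litres water per hectare.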

Veronica persica (VERPE) [6] = test: Herbicidal post-emergence action, 320 g/ha, VERPE; settings: visual grading after ca. 3 weeks
Procedure, shortened: as §4

Lolium rigidum (LOLRI) [7] = test: Herbicidal pre-emergence action, 320 g/ha (Table C2); settings: visual grading after ca. 3 weeks vs untreated controls
Procedure, shortened: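 Applied pre-emergence to the surface of soil covering weed seeds sown in sandy loam, as WP or EC formulations in water with 0.5% additive at 600 L/ha. Greenhouse-grown; damage graded visually at ca. 3 weeks as percent of untreated controls (100% = plants died).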

Stellaria media (STEME) [8] = test: Herbicidal post-emergence action, 1280 g/ha (Table B9); settings: visual assessment after ca. 3 weeks vs untreated controls
Procedure, shortened: as §3

[9] = tested on: Abutilon theophrasti (ABUTH); test: Herbicidal post-emergence action, 1280 g/ha (Table B1); settings: visual assessment after ca. 3 weeks vs untreated controls
Procedure, shortened: as §3

Lolium rigidum (LOLRI) [10] = test: Herbicidal pre-emergence action, 1280 g/ha (Table A5); settings: visual grading after ca. 3 weeks vs untreated controls
Procedure, shortened: as §2

[11] = tested on: Amaranthus retroflexus (AMARE); test: Herbicidal post-emergence action, 1280 g/ha, AMARE; settings: visual grading vs untreated controls
Procedure, shortened: (§5)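 Pot-grown weeds in sandy loam sprayed post-emergence at the single-leaf stage, 2–3 weeks after sowing, with WP or EC formulations plus 0.5% additive in 600 L water/ha at 1280 g/ha. After ca. 3 weeks in the greenhouse, damage scored visually as % effect versus untreated controls (100% = plants dead).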

[12] = tested on: Matricaria inodora (MATIN); test: Herbicidal pre-emergence action, 1280 g/ha (Table A6); settings: visual grading after ca. 3 weeks vs untreated controls
Procedure, shortened: as §2

Kochia scoparia (KCHSC) [13] = test: Herbicidal post-emergence action, 1280 g/ha (Table B4); settings: visual assessment after ca. 3 weeks vs untreated controls
Procedure, shortened: as §3

[14] = tested on: Amaranthus retroflexus (AMARE); test: Herbicidal post-emergence action, 320 g/ha, AMARE; settings: visual grading after ca. 3 weeks
Procedure, shortened: as §4

Veronica persica (VERPE) [15] = test: Herbicidal post-emergence action, 1280 g/ha, VERPE; settings: visual grading vs untreated controls
Procedure, shortened: as §5

Poa annua (POAAN) = test: Herbicidal pre-emergence action, 1280 g/ha (Table A7); settings: visual grading after ca. 3 weeks vs untreated controls
Procedure, shortened: as §2

[16] = tested on: Matricaria inodora (MATIN); test: Herbicidal post-emergence action, 320 g/ha, MATIN; settings: visual grading after ca. 3 weeks
Procedure, shortened: as §4

Kochia scoparia (KCHSC) [17] = test: Herbicidal pre-emergence action, 1280 g/ha (Table A4); settings: visual grading after ca. 3 weeks vs untreated controls
Procedure, shortened: as §2

Stellaria media (STEME) [18] = test: Herbicidal pre-emergence action, 320 g/ha, STEME; settings: visual grading after ca. 3 weeks
Procedure, shortened: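 Weed seeds sown in sandy loam pots; WP or EC formulations applied pre-emergence to the covering soil surface at 320 g/ha with 0.5% additive in 600 L water/ha. Greenhouse growth; visual damage scored after ca. 3 weeks versus untreated controls (100% = plants died, 0% = as control).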

[19] = tested on: Amaranthus retroflexus (AMARE); test: Herbicidal pre-emergence action, 320 g/ha, AMARE; settings: visual grading after ca. 3 weeks
Excerpt: as §1, with “plants).” for “plants). Tables C1 to C6 below, show the effects of selected compounds of the general formula (I) according to Table 1 on various harmful plants using an application rate corresponding to 320 g/ha obtained by the experimental procedure mentioned above.”
Tables C1 to C6 below, show the effects of selected compounds of the general formula (I) according to Table 1 on various harmful plants using an application rate corresponding to 320 g/ha obtained by the experimental procedure mentioned above.

Stellaria media (STEME) [20] = test: Herbicidal post-emergence action, 320 g/ha, STEME; settings: visual grading after ca. 3 weeks
Procedure, shortened: as §4

Setaria viridis (SETVI) [21] = test: Herbicidal post-emergence action, 1280 g/ha (Table B8); settings: visual assessment after ca. 3 weeks vs untreated controls
Excerpt: (§6) Seeds of mono- and dicotyledonous weed plants were sown in plastic pots (double sowings with one species of mono- and one species of dicotyledonous weed plants per pot), in sandy loam, covered with soil and grown under controlled growth conditions. 2 to 3 weeks after sowing, the test plants were sprayed in the single-leaf stage. The compounds according to the invention, formulated in the form of wettable powders (WP) or as emulsifiable concentrates (EC), were sprayed onto the green plant parts as an aqueous suspension or as an emulsion, with the addition of 0.5% of an additive, at an application rate of 600 litres of water per hectare (converted). The test plants were placed in the greenhouse for ca. 3 weeks under optimum growth conditions, and then the effect of the preparations was assessed visually in comparison with untreated controls (herbicidal effect in percent (%): 100% effect=plants have died, 0% effect=as control plants). Tables B1 to B11 below, show the effects of selected compounds of the general formula (I) according to Table 1 on various harmful plants using an application rate corresponding to 1280 g/ha obtained by the experimental procedure mentioned above.

Veronica persica (VERPE) [22] = test: Herbicidal pre-emergence action, 1280 g/ha (Table A10); settings: visual grading after ca. 3 weeks vs untreated controls
Excerpt: as §1, with “A1” for “C1”, “A11” for “C6”, “and” for “using”, “1280” for “320”

[23] = tested on: Echinochloa crus-galli (ECHCG); test: Herbicidal post-emergence action, 1280 g/ha (Table B3); settings: visual assessment after ca. 3 weeks vs untreated controls
Excerpt: as §6

Lolium rigidum (LOLRI) [24] = test: Herbicidal post-emergence action, 320 g/ha, LOLRI; settings: visual grading after ca. 3 weeks
Procedure, shortened: as §4

Lolium rigidum (LOLRI) [25] = test: Herbicidal post-emergence action, 1280 g/ha (Table B5); settings: visual assessment after ca. 3 weeks vs untreated controls
Procedure, shortened: as §3

[26] = tested on: Digitaria sanguinalis (DIGSA); test: Herbicidal post-emergence action, 1280 g/ha (Table B2); settings: visual assessment after ca. 3 weeks vs untreated controls
Excerpt: as §6

Setaria viridis (SETVI) [27] = test: Herbicidal pre-emergence action, 1280 g/ha (Table A8); settings: visual grading after ca. 3 weeks vs untreated controls
Procedure, shortened: as §2

[28] = tested on: Abutilon theophrasti (ABUTH); test: Herbicidal pre-emergence action, 1280 g/ha (Table A1); settings: visual grading after ca. 3 weeks vs untreated controls
Procedure, shortened: as §2

Row | Compound | herbicidal effect MATIN [1] [%] | herbicidal effect STEME (Stellaria media (STEME) [2]) [%] | herbicidal effect AMARE [3] [%] | herbicidal effect MATIN [4] [%] | herbicidal effect ABUTH [5] [%] | herbicidal effect LOLRI (Lolium rigidum (LOLRI) [7]) [%] | herbicidal effect STEME (Stellaria media (STEME) [8]) [%] | herbicidal effect ABUTH [9] [%] | herbicidal effect LOLRI (Lolium rigidum (LOLRI) [10]) [%] | herbicidal effect AMARE [11] [%] | herbicidal effect MATIN [12] [%] | herbicidal effect KCHSC (Kochia scoparia (KCHSC) [13]) [%] | herbicidal effect AMARE [14] [%] | herbicidal effect VERPE (Veronica persica (VERPE) [15]) [%] | herbicidal effect STEME (Stellaria media (STEME) [18]) [%] | herbicidal effect STEME (Stellaria media (STEME) [20]) [%] | herbicidal effect LOLRI (Lolium rigidum (LOLRI) [25]) [%] | herbicidal effect DIGSA [26] [%] | further results
1 | Cc1nn(C)c(=O)c(Oc2cc(F)ccc2Br)c1O [Example I-026] | 90 | 100 | 100 | 100 | 90 | 90 | 90 | 100 | 100 | 100 | 100 | 90 | 90 | 90 | 100 |  |  |  | herbicidal effect VERPE (Veronica persica (VERPE) [6]): 90%; herbicidal effect POAAN (Poa annua (POAAN)): 90%; herbicidal effect MATIN [16]: 90%; herbicidal effect KCHSC (Kochia scoparia (KCHSC) [17]): 90%
2 | Cc1nn(C)c(=O)c(Oc2ccccc2C#N)c1O [Example I-028] | 100 | 100 |  |  |  |  |  |  |  | 90 | 100 |  |  |  | 100 |  |  |  | herbicidal effect POAAN (Poa annua (POAAN)): 100%
3 | CC(=O)Oc1c(C)nn(C)c(=O)c1Oc1ccccc1C(F)(F)F [Example I-030] | 100 | 100 | 100 | 90 | 90 | 90 | 100 | 100 | 100 | 90 | 100 | 90 | 90 | 90 | 100 | 90 | 90 |  | herbicidal effect AMARE [19]: 90%; herbicidal effect SETVI (Setaria viridis (SETVI) [21]): 90%; herbicidal effect VERPE (Veronica persica (VERPE) [22]): 90%; herbicidal effect ECHCG [23]: 90%; herbicidal effect LOLRI (Lolium rigidum (LOLRI) [24]): 90%; herbicidal effect KCHSC (Kochia scoparia (KCHSC) [17]): 90%
4 | CCOC(=O)Oc1c(C)nn(C)c(=O)c1Oc1ccc(F)cc1C1CC1 [Example I-034] |  |  | 90 | 90 | 90 |  | 90 | 90 | 100 | 100 | 100 | 90 | 90 | 90 |  | 90 | 90 | 90 | herbicidal effect SETVI (Setaria viridis (SETVI) [21]): 90%; herbicidal effect ECHCG [23]: 90%
5 | Cc1nn(C)c(=O)c(Oc2ccc(F)c(Cl)n2)c1O [Example I-052] |  |  |  |  |  |  |  |  |  |  |  |  |  |  |  |  |  | 90 | 
6 | Cc1nn(C)c(=O)c(Oc2ccc(Br)cc2)c1O [Example I-068] |  |  | 90 |  |  |  |  |  |  |  |  | 90 |  | 90 |  |  |  | 90 | herbicidal effect SETVI (Setaria viridis (SETVI) [27]): 90%
7 | CCOC(=O)Oc1c(C)nn(C)c(=O)c1Oc1cc(Cl)ccc1Cl [Example I-086] |  | 100 | 90 | 90 |  | 90 | 100 | 90 | 100 | 100 | 100 |  | 90 |  |  | 90 | 100 |  | herbicidal effect VERPE (Veronica persica (VERPE) [22]): 90%; herbicidal effect LOLRI (Lolium rigidum (LOLRI) [24]): 90%
8 | Cc1nn(C)c(=O)c(Oc2cc(Cl)ccc2Br)c1O [Example I-091] | 90 | 100 | 100 |  |  | 100 | 90 |  | 100 |  | 100 |  |  |  | 100 | 90 | 90 |  | herbicidal effect AMARE [19]: 90%; herbicidal effect ABUTH [28]: 90%
